Assay results published in US10301272B2, “Carboxamide or sulfonamide substituted thiazoles and related derivatives as modulators for the orphan nuclear receptor ROR[γ]” (Phenex Pharmaceuticals AG, priority 2012, dated 2019).
Where two headings read alike, the source gives them in different places.

Experiments:
[1] = target: RORγ (Homo sapiens, UniProt P51449); test: RORγ Gal4 Reporter Gene Assay; assay type: cell-based; conditions: for IC50: 293T cells
In short: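 Cells at 5×10^5/well were transfected with RORγ fragments fused to the GAL4 DNA-binding domain (CMV promoter), a 5×GAL4-site firefly luciferase reporter and CMV-Renilla luciferase for normalization. About 4 h later serum-free MEM and compound were added (vehicle ≤0.1%). Cultures at 37 °C, 5% CO2; at least triplicates.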

[2] = target: RORγ ligand binding domain (LBD) (Homo sapiens (Human), UniProt P51449); test: TR-FRET Activity Assay (ligand sensing assay, LANCE); conditions: for pIC50 (FRET): TR-FRET, interaction of RORγ-LBD with coactivator peptide
Sequence of RORγ ligand binding domain (LBD) (P51449 269-508): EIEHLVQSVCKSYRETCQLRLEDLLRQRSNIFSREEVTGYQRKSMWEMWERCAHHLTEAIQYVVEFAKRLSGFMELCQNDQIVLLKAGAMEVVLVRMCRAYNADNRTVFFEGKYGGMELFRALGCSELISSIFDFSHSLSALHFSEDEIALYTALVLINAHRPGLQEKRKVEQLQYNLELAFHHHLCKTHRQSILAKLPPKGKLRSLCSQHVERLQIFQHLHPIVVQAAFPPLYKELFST

Sequence of RORγ (P51449 whole entry, looked up, the tested form may be a part): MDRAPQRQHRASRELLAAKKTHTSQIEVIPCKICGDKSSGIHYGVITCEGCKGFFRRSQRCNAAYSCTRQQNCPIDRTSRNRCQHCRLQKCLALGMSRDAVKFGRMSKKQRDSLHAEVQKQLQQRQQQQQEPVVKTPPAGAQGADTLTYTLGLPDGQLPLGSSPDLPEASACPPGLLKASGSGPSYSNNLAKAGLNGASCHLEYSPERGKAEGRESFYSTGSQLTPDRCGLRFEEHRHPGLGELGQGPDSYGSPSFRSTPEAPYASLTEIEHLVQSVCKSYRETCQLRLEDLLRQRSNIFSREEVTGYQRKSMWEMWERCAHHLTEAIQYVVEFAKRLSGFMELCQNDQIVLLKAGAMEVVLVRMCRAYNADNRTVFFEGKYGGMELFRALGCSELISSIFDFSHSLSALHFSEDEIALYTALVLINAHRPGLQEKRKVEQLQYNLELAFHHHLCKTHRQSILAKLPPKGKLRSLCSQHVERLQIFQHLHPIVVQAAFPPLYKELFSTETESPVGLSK

Row | IC50 ([1]; firefly (FF) luciferase, read-out: pIC50 (FF) (converted)) [nM] | IC50 ([1]; renilla normalised (RENnorm) luciferase, read-out: pIC50 (REN) (converted)) [nM] | IC50 [2] [nM] | SMILES | pIC50 (FF) [1] | pIC50 (REN) [1] | pIC50 (FRET) [2]
1 |  |  |  | CC(C)(C)c1cc(-c2sc(C(=O)N[C@H]3C[C@H](C(=O)O)C3)nc2CC2CCCCC2)cc(C(F)F)c1 [7/5] | 6.3/7.0/7.1 | 6.3/7.0/7.1 | 6.3/7.0/7.1
2 |  |  |  | CC(C)(C)NS(=O)(=O)c1ccc(-c2sc(C(=O)NCCC(C)(C)C(=O)O)nc2CC2CCCCC2)c(Cl)c1Cl [6/39] | 6.4/8.2/8.2 | 6.4/8.2/8.2 | 6.4/8.2/8.2
3 |  |  |  | CC(C)(C)NS(=O)(=O)c1ccc(-c2sc(C(=O)NCC3(C(=O)O)CCOCC3)nc2CC2CCCCC2)c(Cl)c1Cl [6/36] | 6.3/7.4/7.4 | 6.3/7.4/7.4 | 6.3/7.4/7.4
4 |  |  |  | CC(C)(C)NS(=O)(=O)c1ccc(-c2sc(C(=O)NC3COC3)nc2CC2CCCCC2)c(Cl)c1Cl [6/34] | 7.2/8.5/8.5 | 7.2/8.5/8.5 | 7.2/8.5/8.5
5 |  |  |  | CC(C)(C)NS(=O)(=O)c1ccc(-c2oc(C(=O)N[C@H]3C[C@H](C(=O)O)C3)nc2CC2CCCCC2)cc1C(C)(C)C [100/2] | 5.5/6.4/6.3 | 5.5/6.4/6.3 | 5.5/6.4/6.3
6 |  |  |  | CC(C)(C)NS(=O)(=O)c1ccc(-c2oc(C(=O)NC34CCC(C(=O)NS(C)(=O)=O)(CC3)CC4)nc2CC2CCCCC2)c2ccccc12 [Example 102, 5-(4-(N-(tert-Butyl)sulfamoyl)naphthalen-1-yl)-4-(cyclohexylmethyl)-N-(4-((methylsulfonyl)carbamoyl)bicyclo[2.2.2]octan-1-yl)oxazole-2-carboxamide] | 6.0/7.3/7.4 | 6.0/7.3/7.4 | 6.0/7.3/7.4
7 |  |  |  | CC(C)(C)NS(=O)(=O)c1ccc(-c2sc(C(=O)N3CC4(COC4)C3)nc2CC2CCCCC2)c(Cl)c1Cl [6/33] | 6.6/7.9/8.0 | 6.6/7.9/8.0 | 6.6/7.9/8.0
8 |  |  |  | CC(C)(C)NS(=O)(=O)c1ccc(-c2sc(NS(C)(=O)=O)nc2CC2CCCCC2)cc1C(F)(F)F [Example 201, N-(tert-Butyl)-4-(4-(cyclohexylmethyl)-2-(methylsulfonamido)thiazol-5-yl)-2-(trifluoromethyl)benzenesulfonamide] | 6.0/6.5/6.6 | 6.0/6.5/6.6 | 6.0/6.5/6.6
9 |  |  |  | COC(c1nc(C(=O)N[C@H]2C[C@H](C(=O)O)C2)sc1-c1ccc(S(=O)(=O)NC(C)(C)C)c(Cl)c1Cl)C1CCCCC1 (stereo partly drawn) [19/4] | 6.0/7.3/7.2 | 6.0/7.3/7.2 | 6.0/7.3/7.2
10 |  |  |  | CC(C)(C)NS(=O)(=O)c1ccc(-c2sc(C(=O)N[C@H]3C[C@H](S(C)(=O)=O)C3)nc2CC2CCCCC2)c(Cl)c1Cl [6/41] | 7.3/8.0/8.2 | 7.3/8.0/8.2 | 7.3/8.0/8.2
11 |  |  |  | CC(C)(C)NS(=O)(=O)c1ccc(-c2sc(C(=O)NCC3(C(N)=O)CCOCC3)nc2CC2CCCCC2)c2ccccc12 [6/3] | 6.5/8.5/8.7 | 6.5/8.5/8.7 | 6.5/8.5/8.7
12 |  |  |  | CC(C)COc1cc(-c2sc(C(=O)N[C@H]3C[C@H](C(=O)O)C3)nc2CC2CCCCC2)cc(C(C)(C)C)n1 [7/11] | 5.9/7.4/7.4 | 5.9/7.4/7.4 | 5.9/7.4/7.4
13 |  |  |  | CC(C)(O)CNC(=O)c1nc(CC2CCCCC2)c(-c2ccc(S(=O)(=O)NC(C)(C)C)c(C(C)(C)O)c2)s1 [6/23] | 6.6/7.5/7.6 | 6.6/7.5/7.6 | 6.6/7.5/7.6
14 |  |  |  | CC(C)(CNC(=O)c1nc(CC2CCCCC2)c(-c2cc(C(C)(C)C)cc(C3(C)CC3)c2)o1)C(=O)O [100/19] | 5.9/6.6/6.6 | 5.9/6.6/6.6 | 5.9/6.6/6.6
15 |  |  |  | CC1(c2cc(C(=O)NC3(C#N)CC3)cc(-c3sc(C(=O)NC4CCS(=O)(=O)CC4)nc3CC3CCCCC3)c2)CC1 [10/2] | 6.6/7.3/7.4 | 6.6/7.3/7.4 | 6.6/7.3/7.4
16 |  |  |  | CC(C)(C)c1cc(-c2oc(C(N)=O)nc2CC2CCCCC2)cc(C(C)(C)C)c1 [Example 100, 4-(Cyclohexylmethyl)-5-(3,5-di-tert-butylphenyl)oxazole-2-carboxamide] | 6.6/5.8/5.8 | 6.6/5.8/5.8 | 6.6/5.8/5.8
17 |  |  |  | CC(C)(C)NS(=O)(=O)c1ccc(-c2oc(C(=O)N3CC4(CCOCC4)C3)nc2CC2CCCCC2)c2ccccc12 [100/10] | 6.4/7.2/7.4 | 6.4/7.2/7.4 | 6.4/7.2/7.4
18 |  |  |  | CC(C)(C)NS(=O)(=O)c1ccc(-c2sc(C(=O)NC3CCS(=O)(=O)CC3)nc2CC2CCCCC2)c2ccccc12 [6/6] | 6.7/9.0/9.0 | 6.7/9.0/9.0 | 6.7/9.0/9.0
19 |  |  |  | CC(C)(O)CNC(=O)c1nc(CC2CCCCC2)c(-c2ccc(S(=O)(=O)NC(C)(C)C)c3ccccc23)o1 [100/7] | 6.6/7.7/7.9 | 6.6/7.7/7.9 | 6.6/7.7/7.9

Row | IC50 ([1]; firefly (FF) luciferase, read-out: pIC50 (FF) (converted)) [nM] | IC50 ([1]; renilla normalised (RENnorm) luciferase, read-out: pIC50 (REN) (converted)) [nM] | IC50 [2] [nM] | SMILES | pIC50 (FF) [1] | pIC50 (REN) [1] | pIC50 (FRET) [2]
20 |  |  |  | COC(c1nc(C(=O)NC2CCOCC2)sc1-c1ccc(S(=O)(=O)NC(C)(C)C)c(C(C)(C)C)c1)C1CCCCC1 (stereo not drawn) [Example 19/1] | 6.1/6.7/6.7 | 6.1/6.7/6.7 | 6.1/6.7/6.7
21 |  |  |  | CC(C)(C)NS(=O)(=O)c1ccc(-c2sc(C(=O)NC3CCS(=O)(=O)CC3)nc2CC2CC2)c(Cl)c1Cl [6/35] | 7.0/7.5/7.5 | 7.0/7.5/7.5 | 7.0/7.5/7.5
22 |  |  |  | CC(C)(C)c1cc(-c2sc(C(N)=O)nc2CC2CCCCC2)cc(C(C)(C)C)c1 [Example 5, 4-(Cyclohexylmethyl)-5-(3,5-di-tert-butylphenyl)thiazole-2-carboxamide] | 6.7/6.3/6.1 | 6.7/6.3/6.1 | 6.7/6.3/6.1
23 |  |  |  | CC(C)(C)NS(=O)(=O)c1ccc(-c2sc(C(=O)NCCN3CCOCC3)nc2CC2CCCCC2)cc1C(C)(C)O [6/25] | 5.8/6.7/6.7 | 5.8/6.7/6.7 | 5.8/6.7/6.7
24 |  |  |  | CC(C)(C)NS(=O)(=O)c1ccc(-c2oc(C(=O)N[C@H]3C[C@H](C(=O)NS(C)(=O)=O)C3)nc2CC2CCCCC2)c2ccccc12 [Example 102/1] | 6.1/6.7/6.7 | 6.1/6.7/6.7 | 6.1/6.7/6.7
25 |  |  |  | CC(C)(C)NS(=O)(=O)c1ccc(-c2sc(C(=O)N3CC4CC(C3)O4)nc2CC2CCCCC2)c(Cl)c1Cl [6/44] | 7.4/7.8/8.0 | 7.4/7.8/8.0 | 7.4/7.8/8.0
26 |  |  |  | CC(C)(C)c1cc(-c2sc(C(=O)N[C@H]3C[C@H](C(=O)O)C3)nc2CC2CCCCC2)cc(C(C)(F)F)c1 [7/18] | 6.4/7.4/7.4 | 6.4/7.4/7.4 | 6.4/7.4/7.4
27 | 126 | 126 | 794 | CC(C)(C)c1cc(-c2sc(C(=O)N[C@H]3C[C@H](C(=O)O)C3)nc2CC2CCCCC2)cc(C(C)(C)C)[n+]1[O-] [8/9] |  |  | 
28 |  |  |  | COC(C)(C)c1cc(-c2sc(C(=O)N[C@H]3C[C@H](C(=O)O)C3)nc2CC2CCCCC2)cc(C2(C)CC2)c1 [9/5] | 6.7/7.8/7.9 | 6.7/7.8/7.9 | 6.7/7.8/7.9
29 |  |  |  | CC(C)(C)NS(=O)(=O)c1ccc(-c2sc(C(=O)NC3CSC3)nc2CC2CCCCC2)c(Cl)c1Cl [6/30] | 7.2/8.7/8.7 | 7.2/8.7/8.7 | 7.2/8.7/8.7
30 |  |  |  | CC(C)(C)NS(=O)(=O)c1ccc(-c2sc(C(=O)NC3CSC3)nc2CC2CCCCC2)c2ccccc12 [6/14] | 6.8/8.7/8.7 | 6.8/8.7/8.7 | 6.8/8.7/8.7
31 |  |  |  | CC(C)(C)NS(=O)(=O)c1ccc(-c2sc(C(=O)NC3CC3)nc2CC2CCCCC2)c(Cl)c1Cl [6/31] | 7.3/8.0/8.0 | 7.3/8.0/8.0 | 7.3/8.0/8.0
32 |  |  |  | CC(C)(O)c1cc(-c2sc(C(=O)N[C@H]3C[C@H](C(=O)O)C3)nc2CC2CCCCC2)cc(C2(C)CC2)c1 [9/4] | 6.5/7.1/7.1 | 6.5/7.1/7.1 | 6.5/7.1/7.1
33 |  |  |  | CC(C)(C)c1cc(-c2sc(C(=O)NC3CCOCC3)nc2CC2CCCCC2)cc(C2(C)CC2)c1 [Example 8, 5-(3-(tert-Butyl)-5-(1-methylcyclopropyl)phenyl)-4-(cyclohexylmethyl)-N-(tetrahydro-2H-pyran-4-yl)thiazole-2-carboxamide] | 7.0/7.3/7.5 | 7.0/7.3/7.5 | 7.0/7.3/7.5
34 |  |  |  | Cc1c(C(=O)NC(C)(C)C)cc(-c2sc(C(=O)N[C@H]3C[C@H](C(=O)O)C3)nc2CC2CCCCC2)cc1C1(C)CC1 [19/7] | 5.8/6.8/6.8 | 5.8/6.8/6.8 | 5.8/6.8/6.8
35 |  |  |  | COC(c1nc(C(=O)N[C@H]2C[C@H](C(=O)O)C2)sc1-c1cc(C(C)(C)C)cc(C2(C)CC2)c1)C1CCCCC1 (stereo partly drawn) [19/2] | 6.1/7.0/7.0 | 6.1/7.0/7.0 | 6.1/7.0/7.0
36 |  |  |  | CC(C)(C)NS(=O)(=O)c1ccc(-c2sc(C(=O)NC3CCC(C(=O)O)C3)nc2CC2CCCCC2)c2ccccc12 (stereo not drawn) [6/51] | 6.3/8.4/8.4 | 6.3/8.4/8.4 | 6.3/8.4/8.4
37 |  |  |  | CC(C)(C)NS(=O)(=O)c1ccc(-c2oc(C(=O)N[C@H]3C[C@H](C(=O)O)C3)nc2CC2CCCCC2)c(Cl)c1Cl [100/17] | 6.1/7.1/7.0 | 6.1/7.1/7.0 | 6.1/7.1/7.0
38 |  |  |  | CC(C)(C)NS(=O)(=O)c1ccc(-c2sc(C(=O)N3CC4(CC[S+]([O-])CC4)C3)nc2CC2CCCCC2)c2ccccc12 [15/9] | 6.4/7.8/7.9 | 6.4/7.8/7.9 | 6.4/7.8/7.9
